Converted amounts (≈) assume the structure as drawn. The source made the active and inactive calls. No cut-off for these calls is given here.
Key:
Pseudomonas aeruginosa [1] = assay: Bactericidal activity against mucA::lox, mutS::lox-deficient Pseudomonas aeruginosa PAOMSA biofilm assessed as increase in viable cells at 16 ug/ml; format: functional, organism-based
Pseudomonas aeruginosa [2] = assay: Antimicrobial activity against mucA::lox-deficient Pseudomonas aeruginosa PAOMA planktonic cells by microdilution method; format: functional
Pseudomonas aeruginosa [3] = assay: Bactericidal activity against mucA::lox, mutS::lox-deficient Pseudomonas aeruginosa PAOMSA biofilm assessed as increase in viable cells at 4 ug/ml for 7 days; format: functional, organism-based
Pseudomonas aeruginosa [4] = assay: Bactericidal activity against mucA::lox, mutS::lox-deficient Pseudomonas aeruginosa PAOMSA biofilm assessed as reduction in bacterial load at 256 ug/ml for 7 days measured on day 1; format: functional
Pseudomonas aeruginosa [5] = assay: Antimicrobial activity against nfxB gene-deficient Pseudomonas aeruginosa PAONB assessed as increase in viable cells at 0.5 to 4 ug/ml after 24 hrs relative to wild-type; format: functional
Pseudomonas aeruginosa [6] = assay: Bactericidal activity against mucA::lox, mutS::lox-deficient Pseudomonas aeruginosa PAOMSA biofilm assessed as increase in viable cells relative to […]; format: functional
Pseudomonas aeruginosa [7] = assay: Antimicrobial activity against mucA::lox, mutS::lox-deficient Pseudomonas aeruginosa PAOMSA planktonic cells by microdilution method; format: functional
Pseudomonas aeruginosa [8] = assay: Bactericidal activity against Pseudomonas aeruginosa PAO1 biofilm assessed as reduction in bacterial load at => 4 ug/ml upto 7 days; format: functional, organism-based
Pseudomonas aeruginosa [9] = assay: Bactericidal activity against mutS::lox-deficient Pseudomonas aeruginosa PAOMS biofilm assessed as reduction in bacterial load at 0.5 ug/ml for 7 days measured on day 1; format: functional
Pseudomonas aeruginosa [10] = assay: Bactericidal activity against mutS::lox-deficient Pseudomonas aeruginosa PAOMS biofilm assessed as increase in viable cells at day 7 relative to wild-type; format: functional
Pseudomonas aeruginosa [11] = assay: Antimicrobial activity against mexD gene-deficient Pseudomonas aeruginosa […] assessed as increase in viable cells at 0.5 to 4 ug/ml after 24 hrs relative to wild-type; format: functional
Pseudomonas aeruginosa [12] = assay: Bactericidal activity against Pseudomonas aeruginosa PAO1 biofilm assessed as reduction in bacterial load at 256 ug/ml for 7 days measured on day 1; format: functional
Pseudomonas aeruginosa [13] = assay: Bactericidal activity against mucA::lox, mutS::lox-deficient Pseudomonas aeruginosa PAOMSA biofilm assessed as increase in viable cells at 4 ug/ml for 4 days; format: functional, organism-based
Pseudomonas aeruginosa [14] = assay: Bactericidal activity against mutS::lox-deficient Pseudomonas aeruginosa PAOMS biofilm assessed as increase in viable cells at 4 ug/ml for 7 days; format: functional, organism-based
Pseudomonas aeruginosa [15] = assay: Bactericidal activity against mutS::lox-deficient Pseudomonas aeruginosa PAOMS biofilm assessed as reduction in bacterial load at 256 ug/ml for 7 days measured on day 1; format: functional
Pseudomonas aeruginosa [16] = assay: Bactericidal activity against mucA::lox-deficient Pseudomonas aeruginosa PAOMA biofilm assessed as reduction in bacterial load at => 4 ug/ml upto 7 days; format: functional, organism-based
Pseudomonas aeruginosa [17] = assay: Bactericidal activity against mutS::lox-deficient Pseudomonas aeruginosa PAOMS biofilm assessed as increase in viable cells at 4 ug/ml for 4 days; format: functional, organism-based
Pseudomonas aeruginosa [18] = assay: Antimicrobial activity against Pseudomonas aeruginosa PAO1 planktonic cells by microdilution method; format: functional
Pseudomonas aeruginosa [19] = assay: Bactericidal activity against Pseudomonas aeruginosa PAO1 biofilm assessed as reduction in bacterial load at 0.5 ug/ml for 7days measured on day 1; format: functional
Pseudomonas aeruginosa [20] = assay: Antimicrobial activity against mutS::lox-deficient Pseudomonas aeruginosa PAOMS planktonic cells by microdilution method; format: functional

## CC[C@H]1OC(=O)[C@H](C)[C@@H](O[C@H]2C[C@@](C)(OC)[C@@H](O)[C@H](C)O2)[C@H](C)[C@@H](O[C@@H]2O[C@H](C)C[C@H](N(C)C)[C@H]2O)[C@](C)(O)C[C@@H](C)CN(C)[C@H](C)[C@@H](O)[C@]1(C)O [AZITHROMYCIN]
Pseudomonas aeruginosa [1]
  Activity: inactive
Pseudomonas aeruginosa [2]
  MIC: 128 mg/L (≈ 171 µM)
Pseudomonas aeruginosa [3]
  Activity: inactive
Pseudomonas aeruginosa [4]
  log10cfu: 2
Pseudomonas aeruginosa [5]
  fold change (FC): 1
Pseudomonas aeruginosa [6]
  fold change (FC): 5000
Pseudomonas aeruginosa [7]
  MIC: 128 mg/L (≈ 171 µM)
Pseudomonas aeruginosa [8]
  Activity: Active
Pseudomonas aeruginosa [9]
  log10cfu: 2
Pseudomonas aeruginosa [10]
  fold change (FC): 50
Pseudomonas aeruginosa [11]
  fold change (FC): 1
Pseudomonas aeruginosa [12]
  log10cfu: 4
Pseudomonas aeruginosa [13]
  Activity: inactive
Pseudomonas aeruginosa [14]
  Activity: inactive
Pseudomonas aeruginosa [15]
  log10cfu: 4
Pseudomonas aeruginosa [16]
  Activity: Active
Pseudomonas aeruginosa [17]
  Activity: inactive
Pseudomonas aeruginosa [18]
  MIC: 128 mg/L (≈ 171 µM)
Pseudomonas aeruginosa [19]
  log10cfu: 2
Pseudomonas aeruginosa [20]
  MIC: 128 mg/L (≈ 171 µM)
